Test results as given in patent US20240383904A1, “HETEROCYCLIC COMPOUNDS” (Hoffmann-La Roche Inc., priority 2021, published 2024).

molecular target: T1, MAGL (Homo sapiens, UniProt Q99685); test: 2-AG assay: MAGL inhibitory activity by hydrolysis of 2-arachidonoylglycerol to arachidonic acid, followed by mass spectrometry; assay type: biochemical; details: 15 min preincubation, 30 min reaction at RT, 8 μM 2-arachidonoylglycerol
T1 sequence (Q99685 1-303): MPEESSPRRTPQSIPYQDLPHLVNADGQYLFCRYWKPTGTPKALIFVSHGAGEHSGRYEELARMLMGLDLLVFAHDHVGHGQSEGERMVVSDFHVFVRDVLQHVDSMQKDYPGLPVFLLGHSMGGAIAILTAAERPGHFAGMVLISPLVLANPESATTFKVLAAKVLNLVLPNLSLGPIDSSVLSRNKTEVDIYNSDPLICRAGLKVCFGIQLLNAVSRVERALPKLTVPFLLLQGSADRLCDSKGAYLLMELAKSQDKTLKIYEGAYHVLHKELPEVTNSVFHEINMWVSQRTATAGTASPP

Row | IC50 [nM] | Compound
1 | 3.79 | O=C1NC2(CO1)CN(C(=O)N1CC3(CC(c4ccc(C(F)(F)F)nc4)C3)C1)C2 [Example 79, 2-[6-[6-(trifluoromethyl)-3-pyridyl]-2-azaspiro[3.3]heptane-2-carbonyl]-7-oxa-2,5-diazaspiro[3.4]octan-6-one]
2 | 6.19 | O=C1NC2(CO1)CN(C(=O)N1CC3(CC(N4CC(C(F)(F)F)C4)C3)C1)C2 [Example 80, 2-[6-[3-(trifluoromethyl)azetidin-1-y1]-2-azaspiro[3.3]heptane-2-carbonyl]-7-oxa-2,5-diazaspiro[3.4]octan-6-one]
3 | 7.62 | O=C1NC2(CO1)CN(C(=O)N1CC3(CC(N4CC(CC(F)(F)F)C4)C3)C1)C2 [Example 81, 2-[6-[3-(2,2,2-trifluoroethyl)azetidin-1-y1]-2-azaspiro[3.3]heptane-2-carbonyl]-7-oxa-2,5-diazaspiro[3.4]octan-6-one]
4 | 5.58 | O=C1CCC2(CN(C(=O)N3CC4(CCN(Cc5ccc(S(=O)(=O)C(F)(F)F)cc5)CC4)C3)C2)N1 [Example 82, 2-[7-(4-triflylbenzyl)-2,7-diazaspiro[3.5]nonane-2-carbonyl]-2,5-diazaspiro[3.4]octan-6-one]
5 | 24.2 | O=C1COCC2(CN(C(=O)N3CC4(CCN(Cc5ccc(S(=O)(=O)C(F)(F)F)cc5)CC4)C3)C2)N1 [Example 83, 2-[7-(4-triflylbenzyl)-2,7-diazaspiro[3.5]nonane-2-carbonyl]-8-oxa-2,5-diazaspiro[3.5]nonan-6-one]
6 | 0.99 | O=C1NC2(CO1)CN(C(=O)N1CC3(CCN(Cc4ccc(S(=O)(=O)C(F)(F)F)cc4)CC3)C1)C2 [Example 84, 2-[7-(4-triflylbenzyl)-2,7-diazaspiro[3.5]nonane-2-carbonyl]-7-oxa-2,5-diazaspiro[3.4]octan-6-one]
7 | 0.94 | O=C1NC2(CO1)CN(C(=O)N1CC3(CN(Cc4ccc(S(=O)(=O)C(F)(F)F)cc4)C3)C1)C2 [Example 85, 2-[6-(4-triflylbenzyl)-2,6-diazaspiro[3.3]heptane-2-carbonyl]-7-oxa-2,5-diazaspiro[3.4]octan-6-one]
8 | 984 | O=C1COCC2(CN(C(=O)N3CC4(C3)CN(S(=O)(=O)c3cccc(OC(F)(F)F)c3)C4)C2)N1 [Example 86, 2-[2-[3-(trifluoromethoxy)phenyl]sulfony1-2,6-diazaspiro[3.3]heptane-6-carbonyl]-8-oxa-2,5-diazaspiro[3.5]nonan-6-one]
9 | 6.42 | O=C1COCC2(CN(C(=O)N3CC4(CCC(Cc5ccc(C(F)(F)F)cn5)CC4)C3)C2)N1 [Example 87, 2-[7-[[5-(trifluoromethyl)-2-pyridyl]methyl]-2-azaspiro[3.5]nonane-2-carbonyl]-8-oxa-2,5-diazaspiro[3.5]nonan-6-one]
10 | 13.5 | O=C1COCC2(CN(C(=O)N3CC4(CCC(OCC5(C(F)(F)F)CC5)CC4)C3)C2)N1 [Example 88, 2-[7-[[1-(trifluoromethyl)cyclopro-pyl]methoxy]-2-azaspiro[3.5]nonane-2-carbonyl]-8-oxa-2,5-diazaspiro[3.5]nonan-6-one]
11 | 29.7 | O=C1COCC2(CN(C(=O)N3CC4(CC(CNC5(C(F)(F)F)CC5)C4)C3)C2)N1 [Example 89, 2-[6-[[[1-(trifluoromethyl)cyclopro-pyl]amino]methyl]-2-azaspiro[3.3]heptane-2-carbonyl]-8-oxa-2,5-diazaspiro[3.5]nonan-6-one]
12 | 19.1 | O=C1CCC2(CN(C(=O)N3CCC4(CC3)CN(Cc3ccc(C(F)(F)F)cc3F)C4)C2)N1 [Example 90, 2-[2-[2-fluoro-4-(trifluoromethyl)benzyl]-2,7-diazaspiro[3.5]nonane-7-carbonyl]-2,5-diazaspiro[3.4]octan-6-one]
13 | 635 | O=C1NC2(CCO1)CN(C(=O)N1CCC3(CC1)CN(Cc1ccc(C(F)(F)F)cc1F)C3)C2 [Example 91, 2-[2-[2-fluoro-4-(trifluoromethyl)benzyl]-2,7-diazaspiro[3.5]nonane-7-carbonyl]-7-oxa-2,5-diazaspiro[3.5]nonan-6-one]
14 | 0.65 | O=C1NC2(CO1)CN(C(=O)N1CCC3(CC1)CN(Cc1ccc(C(F)(F)F)cc1F)C3)C2 [Example 92, 2-[2-[2-fluoro-4-(trifluoromethyl)benzyl]-2,7-diazaspiro[3.5]nonane-7-carbonyl]-7-oxa-2,5-diazaspiro[3.4]octan-6-one]
15 | 142 | O=C1NCC2(CN(C(=O)N3CCC4(CC3)CN(Cc3ccc(C(F)(F)F)cc3F)C4)C2)N1 [Example 93, 2-[2-[2-fluoro-4-(trifluoromethyl)benzyl]-2,7-diazaspiro[3.5]nonane-7-carbonyl]-2,5,7-triazaspiro[3.4]octan-6-one]
16 | 1.08 | O=C1NC2(CO1)CN(C(=O)N1CC3(CC(NCc4ccc(C(F)(F)F)cc4F)C3)C1)C2 [Example 94]
17 | 0.37 | O=C1NC2(CO1)CN(C(=O)N1CC3(CCC(Nc4ccc(C(F)(F)F)cn4)CC3)C1)C2 [Example 95, 2-[7-[[5-(trifluoromethyl)-2-pyridyl]amino]-2-azaspiro[3.5]nonane-2-carbonyl]-7-oxa-2,5-diazaspiro[3.4]octan-6-one]
18 | 1.88 | CN(c1cnc(C(F)(F)F)cn1)C1CCC2(CC1)CN(C(=O)N1CC3(COC(=O)N3)C1)C2 [Example 96, 2-[7-[methyl-[5-(trifluoromethyl)pyrazin-2-yl]amino]-2-azaspiro[3.5]nonane-2-carbonyl]-7-oxa-2,5-diazaspiro[3.4]octan-6-one]
19 | 0.15 | O=C1NC2(CO1)CN(C(=O)N1CC3(CCC(Cc4ccc(Cl)cn4)CC3)C1)C2 [Example 97, 2-[7-[(5-chloro-2-pyridyl)methyl]-2-azaspiro[3.5]nonane-2-carbonyl]-7-oxa-2,5-diazaspiro[3.4]octan-6-one]
20 | 1.75 | O=C1NC2(CO1)CN(C(=O)N1CC3(CCC(Nc4cnc(C(F)(F)F)cn4)CC3)C1)C2 [Example 98, 2-[7-[[5-(trifluoromethyl)pyrazin-2-yl]amino]-2-azaspiro[3.5]nonane-2-carbonyl]-7-oxa-2,5-diazaspiro[3.4]octan-6-one]
21 | 3.09 | CS(=O)(=O)c1cc(F)ccc1OC1CCC2(CC1)CN(C(=O)N1CC3(COC(=O)N3)C1)C2 [Example 99, 2-[7-(4-fluoro-2-mesyl-phenoxy)-2-azaspiro[3.5]nonane-2-carbonyl]-7-oxa-2,5-diazaspiro[3.4]octan-6-one]
22 | 0.18 | O=C1NC2(CO1)CN(C(=O)N1CC3(CCC(Cc4ccc(C(F)(F)F)nc4)CC3)C1)C2 [Example 101, 2-[7-[[6-(trifluoromethyl)-3-pyridyl]methyl]-2-azaspiro[3.5]nonane-2-carbonyl]-7-oxa-2,5-diazaspiro[3.4]octan-6-one]
23 | 10.8 | O=C1CCC2(CN(C(=O)N3CC4(CCC(Cc5cnc(C(F)(F)F)cn5)CC4)C3)C2)N1 [Example 102, 2-[7-[[5-(trifluoromethyl)pyrazin-2-yl]methyl]-2-azaspiro[3.5]nonane-2-carbonyl]-2,5-diazaspiro[3.4]octan-6-one]
24 | 0.28 | O=C1NC2(CO1)CN(C(=O)N1CC3(CCC(Cc4ncc(F)cc4F)C3)C1)C2 (stereo not shown) [Example 103, 2-[6-[(3,5-difluoro-2-pyridyl)methyl]-2-azaspiro[3.4]octane-2-carbonyl]-7-oxa-2,5-diazaspiro[3.4]octan-6-one]
25 | 0.05 | O=C1NC2(CO1)CN(C(=O)N1CC3(CCC(Cc4ccc(OC(F)F)nc4)CC3)C1)C2 [Example 105, 2-[7-[[6-(difluoromethoxy)-3-pyridyl]methyl]-2-azaspiro[3.5]nonane-2-carbonyl]-7-oxa-2,5-diazaspiro[3.4]octan-6-one]
